# Test results as given in patent US12221418B2 (EYE HOSPITAL, WENZHOU MEDICAL UNIVERSITY, priority 2021, dated 2025).
# Experiments:
# [1] = Stability in high humidity environment (moisture absorption weight gain); type: physicochemical; details: 25° C., RH90%±5%
# Protocol: A moisture absorption gain ratio was calculated.
# [2] = test system: SV40 corneal epithelial cells; test: Hypertonic inflammatory cell model, RT-PCR of inflammation-related cytokine mRNA; type: cell-based, human; details: hypertonic model 500 mOsm, four hours of administration, vs. HS group, Ps<0.01
# Protocol: SV40 cell culture: SV40 cells were cultured in a DMEM/F12 medium containing 10% fetal bovine serum, and added with insulin and a human epidermal growth factor at the same time, so that a final concentration of insulin in the medium was 5 μg/mL and a final concentration of the human epidermal growth factor was 10 ng/mL. The medium was routinely subcultured in a cell culture incubator with a temperature of 37° C., CO2 content of 5% and a humidity of 90%. The cells were grown to a fused state of 70%-90% for an experiment.
# Preparation of solution: (1) preparation of hypertonic liquid (500 mOsm): 90 mmol/L NaCl solution was added to a serum-free medium. […]
# (§1) Real-time PCR (RT-PCR): mRNA expressions of different groups of IL-6, IL-1β, IL-17A, IL-18, TNF-α, and NLRP3 were detected using RT-PCR. […] RNA was extracted from the cells according to an instruction of an RNA extraction kit, and a total amount of RNAs required to synthesize a cDNA template was calculated based on a measured concentration. cDNA was synthesized by an M-MLV reverse transcription kit, and the cDNA obtained by reverse transcription was stored at −20° C. for subsequent PCR amplification. […]
# (§2) A SYBR Green fluorescent dye method was used for RT-PCR detection. A relatively quantified mRNA expression quantity of a target gene was calculated. […]
# [3] = test system: primary human corneal epithelial cells; test: as above; type: cell-based; details: Ps<0.01
# Protocol: Primary human cell culture: the remaining limbus of the donor cornea used in a surgery was treated with an ophthalmic instrument into a tissue block carrying corneal stem cells, the tissue block was pasted at the bottom of a cell culture dish, cultured in an SHEM medium, and placed in a cell culture incubator with a temperature of 37° C., CO2 content of 5% and humidity of 90%; primary human corneal epithelial cells crawling out of the limbal stem cells can be seen after 3-5 days; and the cells were grown to a fused state of 70%-90% for an experiment.
# Preparation of solution: (1) preparation of hypertonic liquid (500 mOsm): 90 mmol/L NaCl solution was added to a serum-free medium. (2) Preparation of a tested drug solution: 10 mg of the above prepared product was dissolved in 1 mL of 37° C. DMSO solution, prepared into […] mother liquor, and stored in a −20° C. refrigerator for later use; and the mother liquor was diluted with a serum-free medium to prepare drug solutions having final concentrations of 1 μmol/L and 10 μmol/L for an experiment. […]
# as §1, §2
# Real-time PCR (RT-PCR): mRNA expressions of different groups of IL-6, IL-1β, IL-17A, IL-18, TNF-α, and NLRP3 were detected using RT-PCR. […]
# [4] = Photo- and thermal stability in the solvent, HPLC
# [5] = pH 7.5
smiles,measurement,setting,value
CC(C)(O)c1ccccc1CC[C@@H](SCC1(CC(=O)O)CC1)c1cccc(/C=C/c2ccc3ccc(Cl)cc3n2)c1 [Montelukast],Weight gain percentage of Day 5 (%),[1],4.5%
same,Weight gain percentage of Day 10 (%),[1],5.3%
"CC(C)(O)c1ccccc1CC[C@@H](SCC1(CC(=O)[O-])CC1)c1cccc(/C=C/c2ccc3ccc(Cl)cc3n2)c1.COc1ccc2cc3[n+](cc2c1OC)CCc1cc2c(cc1-3)OCO2 [Montelukast berberine double salt, (R,E)-2-(1-(((1-(3-(2-(7-chloroquinoline-2-yl)vinyl)phenyl)-3-(2-(2-hydroxypropyl-2-yl)phenyl)propyl)thio)methyl)cyclopropyl)acetic acid and 9,10-dimethoxy-5,6-dihydro-[1,3]dioxocyclo [4,5-g]isoquino[3,2-a]isoquinolin-7-onium conjugate]",inflammation-related cytokines (mRNA expression),[2]; 1 μmol/L,significantly reduce
same,inflammation-related cytokines (mRNA expression),[2]; 10 μmol/L,significantly reduce
same,inflammation-related cytokines (mRNA expression),"[3]; 0.5 μmol/L, compared with single drug of berberine and montelukast of the same concentration",significantly reduce
same,inflammation-related cytokines (mRNA expression),"[3]; 1 μmol/L, hypertonic model 500 mOsm, four hours of administration, vs. HS group",significantly reduce
same,inflammation-related cytokines (mRNA expression),"[3]; 10 μmol/L, hypertonic model 500 mOsm, four hours of administration, vs. HS group",significantly reduce
same,Weight gain percentage of Day 5 (%),[1],3.3%
same,Weight gain percentage of Day 10 (%),[1],4.9%
COc1ccc2cc3[n+](cc2c1OC)CCc1cc2c(cc1-3)OCO2 [Berberine base],C,[4]; 0:00,24.45 µg/mL
same,Purity,[4]; 0:00,97.35%
same,C,"[4]; 40° C. (in dark place), 8:00",22.62 µg/mL
same,Purity,"[4]; 40° C. (in dark place), 8:00",97.17%
same,C,"[4]; 40° C. (in dark place), Day 5",22.41 µg/mL
same,Purity,"[4]; 40° C. (in dark place), Day 5",97.02%
same,C,"[4]; 40° C. (in dark place), Day 10",10.35 µg/mL
same,Purity,"[4]; 40° C. (in dark place), Day 10",96.86%
same,C,"[4]; 60° C. (in dark place), 8:00",22.45 µg/mL
same,Purity,"[4]; 60° C. (in dark place), 8:00",97.17%
same,C,"[4]; 60° C. (in dark place), Day 5",21.31 µg/mL
same,Purity,"[4]; 60° C. (in dark place), Day 5",96.96%
same,C,"[4]; 60° C. (in dark place), Day 10",9.68 µg/mL
same,Purity,"[4]; 60° C. (in dark place), Day 10",95.99%
same,C,"[4]; Illumination, 8:00",21.84 µg/mL
same,Purity,"[4]; Illumination, 8:00",97.62%
same,C,"[4]; Illumination, Day 5",14.70 µg/mL
same,Purity,"[4]; Illumination, Day 5",88.52%
same,C,"[4]; Illumination, Day 10",7.02 µg/mL
same,Purity,"[4]; Illumination, Day 10",74.89%
same,Concentration in solvent,[5],24.45 µg/mL
same,Weight gain percentage of Day 5 (%),[1],4.2%
same,Weight gain percentage of Day 10 (%),[1],6.7%
